Laboratory results taken from patent US20110275692A1, “SUBSTITUTED GAMMA LACTAMS AS THERAPEUTIC AGENTS” (ALLERGAN, INC., priority 2005, published 2011).

Columns and labels:
EP2 [1] = target: T1, EP2 (Homo sapiens, UniProt P43116); test: EP2 competition binding ([3H]PGE2); parameters: expressed in transfected cells; host or cells: HEK 293; settings: HEK 293 cells stably expressing human EP2, [3H]PGE2
Protocol: Competition binding experiments were performed in a medium containing Hank's balanced salt solution, Hepes 20 mM, pH 7.3, membranes (˜60 μg protein) or 2×10^5 cells from HEK 293 cells stably expressing human EP2 receptors, [^3H]PGE2 (10 nM) and various concentrations of test compounds in a total volume of […] Reaction mixtures were incubated at 23° C. for 60 min, and were filtered over Whatman GF/B filters under vacuum. Filters were washed three times with 5 ml ice-cold buffer containing 50 mM Tris/HCl (pH 7.3). Non-specific binding was estimated in the presence of excess unlabeled PGE2 (10 μM). Binding data fitted to the binding model for a single class of binding sites, using nonlinear regression analysis. IC50 values thus obtained were converted to Ki using the equation of Ki=(IC50/(1+[L]/KD) where [L] represents PGE2 concentration (10 nM) and KD the dissociation constant for [^3H]PGE2 at human EP2 receptors (40 nM). […]
The cell homogenate was centrifuged at 19000 r.p.m. for 20 min at 4° C. using a Beckman Ti-60 rotor. The resultant pellet was resuspended in TME buffer to give a final 1 mg/ml protein concentration, as determined by Biorad assay. […]
(§1) [^3H-]PGE2 (specific activity 180 Ci mmol) was used as the radioligand for EP receptors. […] 17-phenyl PGF2α and non-specific binding determined with 10^−5M of unlabeled PGE2, or 17-phenyl PGF2α, according to receptor subtype studied.

hEP3A/Gqi5 = target: T2, hEP3A/Gqi5 (Homo sapiens, UniProt P43115); test: Other receptors: hEP3A FLIPR; type: cell-based
T2 construct: expressed in transfected cells; host or cells: HEK-293(EBNA)
T2 sequence (P43115 1-390): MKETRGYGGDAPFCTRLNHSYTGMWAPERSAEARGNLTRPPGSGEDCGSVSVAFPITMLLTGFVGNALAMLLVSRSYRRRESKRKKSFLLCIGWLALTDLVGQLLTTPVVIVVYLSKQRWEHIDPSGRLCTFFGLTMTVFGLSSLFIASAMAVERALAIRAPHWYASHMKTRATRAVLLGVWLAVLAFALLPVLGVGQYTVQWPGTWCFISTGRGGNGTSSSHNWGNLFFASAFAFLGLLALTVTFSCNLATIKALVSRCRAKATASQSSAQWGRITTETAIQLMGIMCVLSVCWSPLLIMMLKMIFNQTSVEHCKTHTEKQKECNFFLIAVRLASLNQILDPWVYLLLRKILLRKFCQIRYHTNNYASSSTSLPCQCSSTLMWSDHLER
Protocol: (§2) HEK-293(EBNA) cells, stably expressing one type or subtype of recombinant human prostaglandin receptors (prostaglandin receptors expressed: hDP/Gqs5; hEP1; hEP2/Gqs5; hEP3A/Gqi5; hER4/Gqs5; hFP; hIP; hTP), were cultured in 100 mm culture dishes in high-glucose DMEM medium containing 10% fetal bovine serum, 2 mM 1-glutamine, 250 μg/ml geneticin (G418) and 200 μg/ml hygromycin B as selection markers, and 100 units/ml penicillin G, 100 μg/ml streptomycin and 0.25 μg/ml amphotericin B.
(§3) Cells were seeded at a density of 5×10^4 cells per well in Biocoat® Poly-D-lysine-coated black-wall, clear-bottom 96-well plates (Becton-Dickinson) and allowed to attach overnight in an incubator at 37° C. Cells were then washed two times with HBSS-HEPES buffer (Hanks Balanced Salt Solution without bicarbonate and phenol red, 20 mM HEPES, pH 7.4) using a Denley Cellwash plate washer (Labsystems). […]
(§4) Cells were excited with an Argon laser at 488 nm, and emission was measured through a 510-570 nm bandwidth emission filter (FLIPR™, Molecular Devices, Sunnyvale, Calif.). […] The peak increase in fluorescence intensity was recorded for each well. […] The peak fluorescence change in each drug-containing well was then expressed relative to the controls. […]

hEP2/Gqs5 = target: T3, hEP2/Gqs5 (Homo sapiens, UniProt P43116); test: EP2 FLIPR calcium signal; type: cell-based; settings: HEK-293(EBNA) cells
T3 construct: expressed in transfected cells; host or cells: HEK-293(EBNA)
Protocol: as §2, §3, §4

EP2 [2] = target: T1, EP2; test: EP2 cAMP; type: cell-based
EP4 receptors = target: T4, EP4 receptors (Homo sapiens, UniProt P35408); test: EP4 radioligand binding ([3H]PGE2)
T4 construct: expressed in transfected cells; host or cells: HEK-293
Protocol: HEK-293 cells stably expressing the human or feline FP receptor, or EP1, EP2, or EP4 receptors were washed with TME buffer, scraped from the bottom of the flasks, and homogenized for 30 sec using a Brinkman PT 10/35 polytron. TME buffer was added to achieve a final 40 ml volume in the centrifuge tubes (the composition of TME is 100 mM TRIS base, 20 mM MgCl2, […]; 10N HCl is added to achieve a pH of 7.4).
The cell homogenate was centrifuged at 19000 r.p.m. for 20 min at 4° C. using a Beckman Ti-60 rotor. The resultant pellet was resuspended in TME buffer to give a final 1 mg/ml protein concentration, as determined by Biorad assay. Radioligand binding competition assays vs. [^3H-]17-phenyl PGF2α (5 nM) were performed in a 100 μl volume for 60 min. Binding reactions were started by adding plasma membrane fraction. The reaction was terminated by the addition of 4 ml ice-cold TRIS-HCl buffer and rapid filtration through glass fiber GF/B filters using a Brandel cell harvester. The filters were washed 3 times with ice-cold buffer and oven dried for one hour.
as §1, with “receptors. [^3H] 17-phenyl PGF2α was employed for FP receptor binding studies.” for “receptors.”

T1 sequence (P43116 whole entry): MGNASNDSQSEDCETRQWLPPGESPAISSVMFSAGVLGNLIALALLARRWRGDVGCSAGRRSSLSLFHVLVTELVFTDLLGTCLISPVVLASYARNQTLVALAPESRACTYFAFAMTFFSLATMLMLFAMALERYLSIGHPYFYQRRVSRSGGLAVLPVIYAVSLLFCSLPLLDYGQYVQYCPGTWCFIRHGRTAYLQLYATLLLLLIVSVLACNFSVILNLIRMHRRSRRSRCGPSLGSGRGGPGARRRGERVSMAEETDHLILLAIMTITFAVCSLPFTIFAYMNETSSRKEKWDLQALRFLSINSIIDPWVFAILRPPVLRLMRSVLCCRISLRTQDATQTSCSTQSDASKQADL
T4 sequence (P35408 whole entry): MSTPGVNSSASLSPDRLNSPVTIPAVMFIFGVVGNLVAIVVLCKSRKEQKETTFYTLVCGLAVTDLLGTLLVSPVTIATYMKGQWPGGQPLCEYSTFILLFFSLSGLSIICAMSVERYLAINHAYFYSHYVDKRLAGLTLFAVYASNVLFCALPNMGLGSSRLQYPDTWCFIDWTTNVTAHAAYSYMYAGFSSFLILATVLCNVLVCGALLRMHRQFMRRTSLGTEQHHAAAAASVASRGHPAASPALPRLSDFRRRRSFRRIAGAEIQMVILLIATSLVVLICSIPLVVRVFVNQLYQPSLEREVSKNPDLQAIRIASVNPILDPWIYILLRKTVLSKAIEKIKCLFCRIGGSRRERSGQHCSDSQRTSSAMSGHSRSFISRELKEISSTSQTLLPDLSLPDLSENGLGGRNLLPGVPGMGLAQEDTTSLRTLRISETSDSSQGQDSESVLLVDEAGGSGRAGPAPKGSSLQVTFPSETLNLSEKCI
T3 sequence (P43116 whole entry): as the sequence (P43116 whole entry) above

Ki (EP2 [1]): 1380 nM | EC50 (hEP3A/Gqi5): 1410 nM | EC50 (hEP2/Gqs5): 226 nM | EC50 (EP2 [2]): 15 nM | Ki (EP4 receptors): > 10 µM
Structure (SMILES): CCCCCC(O)c1ccc(N2C(=O)CC[C@@H]2C=CCc2ccc(C(=O)O)s2)cc1 (stereo partly drawn) [Example 16, 5-((E and Z)-3-{(R)-1-[4-(1-Hydroxy-hexyl)-phenyl]-5-oxo-pyrrolidin-2-yl}-allyl)-thiophene-2-carboxylic acid]
